Data: patent publication US6495570B2, “Combination drug therapy for glycolipid storage diseases” (G. D. Searle & Co., priority 1999, dated 2002)
“And” between values parts separate entries of the source, which are not always exact repeats. Equal values may be shown once.

Legend:
[1] = Organ distribution of radiolabelled compound after oral gavage in the normal mouse; format: in vivo
Procedure: Mouse body fluids and organs were collected for different times (30, 60, 90 minutes) after gavage with radiolabelled compound. Radioactivity in each sample was determined and expressed as a percentage of radioactivity recovered. Solid bars, NN-DNJ, hatched bars, NB-DNJ.
Further evidence that longer alkyl chains are taken up-much better than the shorter alkyl chains has been obtained by in vivo studies with mouse.
Table 2. Recovery of radiolabelled compounds after administration in the normal mouse. Mouse body fluids and organs were collected at different times after gavage with radiolabelled compound. Radioactivity in each sample was determined and expressed as a percentage of radioactivity recovered (data from FIG. 5).

[2] = tested on: glycolipid biosynthesis in human myeloid (HL-60) cells; assay: Inhibition of glycolipid biosynthesis in HL-60 cells (radiolabelled palmitic acid, TLC, scanning densitometry); format: cell-based; conditions: for IC50: Homo sapiens, range quoted for variability of the radiolabelled products, read-out: IC50, inhibition of glycolipids (glucosylceramide and lactosylceramide bands)
Procedure: (§1) Cells were cultured for four days in the presence of radiolabelled palmitic acid and the following concentrations of compound:
(§2) After extraction the radioactively labelled glycolipids were separated by TLC and visualized by radioautography. NB-DNJ is N-butyl-DNJ. NN-DNJ is N-nonyl-DNJ.
(§3) Chinese Hamster Ovary (CHO) cells and human myeloid (HL-60) cells grown in the presence of varying concentrations of inhibitor in addition to a precursor (radiolabelled palmitic acid) of glycolipid biosynthesis were treated with solvents to extract the glycolipids by the procedure described by Platt et al., J. Biol. Chem. 269, 8362-8365 (1994).
(§4) The radiolabelled lipids were separated by TLC (FIG. 1) and bands corresponding to glucosylceramide and lactosylceramide were quantitated by scanning densitometry to estimate the reduction in glycolipid biosynthesis.
(§5) Table 1. […] Radiolabelled glucosylceramide and lactosylceramide bands from FIG. 1 were quantitated by scanning densitometry and the percentage of control (no treatment, track a, FIG. 1) expressed in comparison to compound dose. From the linear curve, an IC50 value was obtained. A range of values is quoted to represent variability of the radiolabelled products.

[3] = cited from earlier work
[4] = tested on: glycolipid biosynthesis in Chinese hamster ovary (CHO) cells; assay: Inhibition of glycolipid biosynthesis in CHO cells (radiolabelled palmitic acid, TLC, scanning densitometry); format: cell-based; conditions: for IC50: Cricetulus griseus, range quoted for variability of the radiolabelled products, read-out: IC50, inhibition of glycolipids (glucosylceramide and lactosylceramide bands)
Procedure: as §1, §2, §3, §4, §5

[5] = tested on: human immunodeficiency virus (HIV); conditions: cited from earlier work
glycolipid biosynthesis = conditions: cited from earlier work
[6] = mice, oral 4800 mg/Kg/day; cited from earlier work
Hepatitis B virus (HBV) = conditions: based on inhibition of alpha-glucosidases in the ER; cited from earlier work
[7] = tested on: CHO, MDBK and HepG2 cells; assay: Uptake of radiolabelled compound into cultured cells (cell-associated radioactivity); format: in vitro ADME; conditions: incubated up to 24 hours
Procedure: FIG. 5 is a bar graph of estimated radioactivity. […] Cells were extensively washed and acid precipitated. After solution in NaOH, cell associated radioactivity was determined as a percentage of radiolabelled compound added.
The activity is explained by the differential uptake into cells.

For `CCCCN1C[C@H](O)[C@@H](O)[C@H](O)[C@H]1CO` [N-butyl-DNJ, N-butyl-1,5-dideoxy-1,5-imino-D-glucitol], the “% recovered, Brain” value ([1]; 30 min after gavage, mouse) was 0.2%, the “% recovered, Liver” value ([1]; 30 min after gavage, mouse) was 8.5% and the “% recovered, Brain” value ([1]; 60 min after gavage, mouse) was 0.1%. For the same compound, the “% recovered, Liver” value ([1]; 60 min after gavage, mouse) was 2.8%, the “% recovered, Brain” value ([1]; 90 min after gavage, mouse) was 0.03% and the “% recovered, Liver” value ([1]; 90 min after gavage, mouse) was 0.9%. The IC50 ([2]; HL-60 cells) was 1.8 to 7.3 µM, the “time of treatment to steady-state plasma concentration” value ([3]; clinical trial) was 4-6 weeks and the peak plasma concentration ([3]; oral, 100 mg three times daily, listed as ND-DNJ) was 6.8 μM and 1.5 μg/ml. For the same compound, the IC50 [4] was 25 to 50 µM, the “effectiveness as an inhibitor of HIV versus the N-ethyl analog” value [5] was “three log orders more effective” and the “effectiveness as an inhibitor of HIV versus the N-methyl analog” value [5] was “more than two log orders more effective”. The “dose required for activity against glycolipid biosynthesis” value (glycolipid biosynthesis) was 0.01 to 0.1 mg/mL and the stable serum concentration [6] was 50 µM.
With `CCCCCCCCCCN1C[C@H](O)[C@@H](O)[C@H](O)[C@H]1CO` [N-decyl-DNJ] the “inhibition at times lower concentrations than N-butyl-DNJ” value ([2]; HL-60 cell-based assay) was 50 times.
For `CCCCCCN1C[C@H](O)[C@@H](O)[C@H](O)[C@H]1CO` [N-hexyl derivative of DNJ], the “dose required for activity against glycolipid biosynthesis” value (glycolipid biosynthesis) is given as 0.2 mg/mL.
For `CN1C[C@H](O)[C@@H](O)[C@H](O)[C@H]1CO` [N-methyl analog], the “activity against glycolipid biosynthesis” value (glycolipid biosynthesis) is listed as “inactive”.
In the case of `CCCCCCCCCN1C[C@H](O)[C@@H](O)[C@H](O)[C@H]1CO` [N-nonyl-DNJ, N-nonyl-1,5-dideoxy-1,5-imino-D-glucitol], the “% recovered, Brain” value ([1]; 30 min after gavage, mouse) is reported as 0.4%, the “% recovered, Liver” value ([1]; 30 min after gavage, mouse) is reported as 27.1% and the “% recovered, Brain” value ([1]; 60 min after gavage, mouse) is reported as 0.3%. For the same compound, the “% recovered, Liver” value ([1]; 60 min after gavage, mouse) was 12.6%, the “% recovered, Brain” value ([1]; 90 min after gavage, mouse) was 0.4% and the “% recovered, Liver” value ([1]; 90 min after gavage, mouse) was 13.5%. The “radioactivity recovered in the liver and brain, higher than N-butyl-DNJ” value ([1]; after 90 min, oral gavage, mouse) was 10 fold, the “uptake into the brain versus N-butyl-DNJ” value ([1]; tests of organ distribution) was “five times better” and the “inhibition of glycolipid biosynthesis, better than N-butyl-DNJ at equivalent concentrations” value ([2]; HL-60 cells) was “about four hundred times better”. The IC50 ([2]; HL-60 cells) was 0.02 to 0.4 µM, the “inhibition of the Hepatitis B virus (HBV)” value (Hepatitis B virus (HBV)) was “effective” and the “inhibition of glycolipid biosynthesis, better than N-butyl-DNJ at equivalent concentrations” value [4] was “about ten- to about twenty-fold better”. For the same compound, the IC50 [4] was 2 to 2.7 µM and the “cell-associated radioactivity, increase versus N-butyl-DNJ” value [7] was 3.5-5.0 fold.
